Where a name gives a salt, the structure may show the parent alone.

These results are taken from patent US11267814B2, “Compounds for bone growth” (OsteoQC Inc., priority 2013, dated 2022).

One data set has as its target T1, sclerostin (Homo sapiens, UniProt Q9BQB4).
T1 construct: host or cells: human embryonic cells (reporter cells)
T1 sequence (Q9BQB4 24-213): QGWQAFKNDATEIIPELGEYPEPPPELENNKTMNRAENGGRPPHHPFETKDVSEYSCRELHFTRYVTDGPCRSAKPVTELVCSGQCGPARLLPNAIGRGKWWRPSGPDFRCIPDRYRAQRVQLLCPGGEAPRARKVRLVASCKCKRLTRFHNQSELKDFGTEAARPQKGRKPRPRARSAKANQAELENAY
Nature of the data set: Modulation of sclerostin/Wnt activity (sclerostin inhibition assay): restoring Wnt3a signaling in the presence of sclerostin. It is filed as cell-based. Particulars: IC100 class; Wnt3a signaling in human embryonic cells in presence of sclerostin.

Data set [1] deals with MC3T3-E1 (mouse calvarial) osteoblast cells. Nature of the data set: Rescue of sclerostin inhibition of mineralization (total calcium). It is filed as cell-based. Particulars: Mus musculus, MC3T3-E1; IC100 class; calcium concentration, MC3T3 osteoblast cells treated with sclerostin; read-out: Sclerostin Inhibition of Mineralization; improvement over sclerostin alone. As for the experimental part:
Mineralization (crystalline calcium phosphate formation) represents an in vitro model of bone formation. […] Following the protocol described in Li et al., Compounds were assayed for their ability to rescue the inhibition of mineralization by sclerostin in MC3T3 osteoblast cells.

The test system of a further data set is MC3T3 osteoblast cells. Nature of the data set: Osteocalcin (OCN) secretion, bone formation marker, ELISA. The settings on record: Mus musculus; IC100 class; OCN secreted from MC3T3 osteoblast cells treated with sclerostin. In kind it is cell-based, mouse. As for the experimental part: Bone formation can also be assayed in vitro or in vivo using a serum marker for bone formation, osteocalcin (OCN), available from Biomedical Tecnhnologies, Inc. (Stoughton, Mass.). Following the manufacturer's protocol for the mouse osteocalcin EIA kit (described at the website www.btiinc.com/page/cata2.html#mouse_osteocalcin), bone formation in MC3T3 osteoblast cells was assayed by measuring the concentration of OCN.

In the next data set the target is T2, hERG potassium channel (Homo sapiens, UniProt Q12809).
T2 construct: expressed in transfected cells; host or cells: CHO-K1
T2 sequence (Q12809 whole entry): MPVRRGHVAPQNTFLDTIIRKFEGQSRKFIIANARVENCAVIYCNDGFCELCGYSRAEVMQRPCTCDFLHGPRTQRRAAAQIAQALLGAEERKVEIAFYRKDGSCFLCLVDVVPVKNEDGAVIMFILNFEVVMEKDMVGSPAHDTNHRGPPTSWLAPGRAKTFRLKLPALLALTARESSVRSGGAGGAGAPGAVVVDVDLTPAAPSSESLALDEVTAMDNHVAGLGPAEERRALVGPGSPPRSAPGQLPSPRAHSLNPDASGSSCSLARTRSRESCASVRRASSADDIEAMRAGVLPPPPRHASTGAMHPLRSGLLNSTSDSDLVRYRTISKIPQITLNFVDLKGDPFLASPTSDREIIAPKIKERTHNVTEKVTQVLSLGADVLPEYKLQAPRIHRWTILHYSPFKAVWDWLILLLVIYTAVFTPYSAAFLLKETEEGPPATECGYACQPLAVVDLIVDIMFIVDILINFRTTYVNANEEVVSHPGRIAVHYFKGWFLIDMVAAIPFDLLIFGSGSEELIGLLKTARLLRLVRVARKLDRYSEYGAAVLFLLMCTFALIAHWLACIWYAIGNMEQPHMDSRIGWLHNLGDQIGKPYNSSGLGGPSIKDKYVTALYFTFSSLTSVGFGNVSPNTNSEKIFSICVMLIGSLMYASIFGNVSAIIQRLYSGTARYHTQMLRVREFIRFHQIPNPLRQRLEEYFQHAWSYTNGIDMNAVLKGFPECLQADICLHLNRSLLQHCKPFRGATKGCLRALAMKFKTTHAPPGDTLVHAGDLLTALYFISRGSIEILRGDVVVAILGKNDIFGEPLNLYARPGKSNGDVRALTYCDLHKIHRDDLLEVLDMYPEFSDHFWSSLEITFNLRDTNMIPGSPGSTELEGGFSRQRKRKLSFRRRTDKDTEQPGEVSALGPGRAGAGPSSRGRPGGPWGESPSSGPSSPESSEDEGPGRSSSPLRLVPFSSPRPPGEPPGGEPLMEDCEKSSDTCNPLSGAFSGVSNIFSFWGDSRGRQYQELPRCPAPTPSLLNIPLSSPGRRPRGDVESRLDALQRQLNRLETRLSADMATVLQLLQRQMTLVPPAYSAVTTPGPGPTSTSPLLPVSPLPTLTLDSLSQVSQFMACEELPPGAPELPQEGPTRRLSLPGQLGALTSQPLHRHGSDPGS
Description: hERG automated patch clamp assay. It is filed as cell-based. Particulars: inhibition of hERG tail current, 5 minutes at room temperature, CHO-K1 cells stably expressing hERG. As for the experimental part:
One major type of cardiovascular toxicity associated with pharmaceutical drugs is caused by drug effects on cardiac ion channels like hERG. Drug-induced inhibition of hERG results in a prolonged QT interval, which can lead to a life-threatening ventricular arrhythmia. Therefore, the inhibitory effect of compounds described in Examples 1-46 on the hERG potassium channel was evaluated using an automated patch clamp assay as described in Mathes, C. (2006) Expert Opin. Ther. Targets, 10 (2): 319-327. CHO-K1 cells stably expressing hERG channels were used.
A general note: The hERG channel carries a current that helps repolarise heart muscle cells.

Consider `COc1ccc2c(c1)[nH]c1c(C)ccnc12` [Example 37, 7-methoxy-4-methyl-5H-pyrido[3,2-b]indole], for which, at sclerostin, the “Sclerostin Inhibition Assay; improvement over sclerostin alone.” value was “++ (++ indicates an IC100 < 10 μM)”. Moreover, the IC100 (in data set [1]; in the data set with MC3T3 osteoblast cells) was < 10 µM throughout. Moreover, at hERG potassium channel, the “hERG (1uM)” value was “+ (+ indicates less than 50% inhibition of hERG tail current)”.

Turning to `COc1ccc2c3ccnc(C)c3n(CCCN3CCNCC3)c2c1` [Example 17, 7-methoxy-1-methyl-9-(3-(piperazin-1-yl)propyl)-9H-pyrido[3,4-b]indole trifluoroacetate], on sclerostin, the “Sclerostin Inhibition Assay; improvement over sclerostin alone.” value is listed as “++ (++ indicates an IC100 < 10 μM)”. The IC100 (in data set [1]; in the data set on MC3T3 osteoblast cells) was < 10 µM throughout. Besides, the “hERG (1uM)” value at hERG potassium channel is listed as “+ (+ indicates less than 50% inhibition of hERG tail current)”.

As to `COc1ccc2c3ccnc(C)c3n(CCN3CCCCC3)c2c1` [Example 10, 7-methoxy-1-methyl-9-(2-(piperidin-1-yl)ethyl)-9H-pyrido[3,4-b]indole], the “Sclerostin Inhibition Assay; improvement over sclerostin alone.” value on sclerostin is “++ (++ indicates an IC100 < 10 μM)”. Further, the IC100 (in data set [1]; with MC3T3 osteoblast cells) was < 10 µM each time. Further, the “hERG (1uM)” value at hERG potassium channel is reported as “+ (+ indicates less than 50% inhibition of hERG tail current)”.

For `COc1ccc2c3ccnc(C)c3n(CCCN3CCOCC3)c2c1` [Example 11, 4-(3-(7-methoxy-1-methyl-9H-pyrido[3,4-b]indol-9-yl)propyl)morpholine formate], at sclerostin, the “Sclerostin Inhibition Assay; improvement over sclerostin alone.” value was “++ (++ indicates an IC100 < 10 μM)”. The IC100 (in data set [1]; with MC3T3 osteoblast cells) was < 10 µM in each case. Moreover, the “hERG (1uM)” value on hERG potassium channel is reported as “+ (+ indicates less than 50% inhibition of hERG tail current)”.

In the case of `COc1ccc2c3ccnc(C)c3n(CC(C)N3CCOCC3)c2c1` (stereo not shown) [Example 8, 4-(1-(7-methoxy-1-methyl-9H-pyrido[3,4-b]indol-9-yl)propan-2-yl) morpholine], the “Sclerostin Inhibition Assay; improvement over sclerostin alone.” value at sclerostin is “++ (++ indicates an IC100 < 10 μM)”. Also, the IC100 (in data set [1]; in the data set on MC3T3 osteoblast cells) was < 10 µM in each case. Moreover, at hERG potassium channel, the “hERG (1uM)” value was “+ (+ indicates less than 50% inhibition of hERG tail current)”.

`COc1ccc2c3ccnc(C(F)(F)F)c3n(CCN(CCO)CCO)c2c1` [Example 35, 2,2′-((2-(7-methoxy-1-(trifluoromethyl)-9H-pyrido[3,4-b]indol-9-yl)ethyl)azanediyl)diethanol]: the “Sclerostin Inhibition Assay; improvement over sclerostin alone.” value on sclerostin is listed as “++ (++ indicates an IC100 < 10 μM)”. The IC100 (in data set [1]; with MC3T3 osteoblast cells) was < 10 µM throughout. Besides, the “hERG (1uM)” value at hERG potassium channel is on record as “+ (+ indicates less than 50% inhibition of hERG tail current)”.

`COc1ccc2c3ccnc(C)c3n(CCN3CCOCC3)c2c1` [Example 12, 4-(2-(7-methoxy-1-methyl-9H-pyrido[3,4-b]indol-9-yl)ethyl)morpholine]: the “Sclerostin Inhibition Assay; improvement over sclerostin alone.” value at sclerostin is given as “++ (++ indicates an IC100 < 10 μM)”. In addition, the IC100 (in data set [1]; with MC3T3 osteoblast cells) was < 10 µM in each case. Further, at hERG potassium channel, the “hERG (1uM)” value is “+ (+ indicates less than 50% inhibition of hERG tail current)”.

On to `COc1ccc2c(c1)[nH]c1c(C)cncc12` [Example 41, 7-methoxy-4-methyl-5H-pyrido[4,3-b]indole], for which, on sclerostin, the “Sclerostin Inhibition Assay; improvement over sclerostin alone.” value is on record as “+ (+ indicates an IC100 > 10 μM)”. Besides, the IC100 (in data set [1]; in the data set on MC3T3 osteoblast cells) was > 10 µM in each case.

`COc1ccc2c3ccnc(C(F)(F)F)c3n(CCN3CCN(C(=O)OC(C)(C)C)CC3)c2c1` [Example 24, t-butyl 4-(2-(7-methoxy-1-(trifluoromethyl)-9H-pyrido[3,4-b]indol-9-yl)ethyl)piperazine-1-carboxylate]: at sclerostin, the “Sclerostin Inhibition Assay; improvement over sclerostin alone.” value is “++ (++ indicates an IC100 < 10 μM)”. Moreover, the IC100 (in data set [1]; in the data set with MC3T3 osteoblast cells) was < 10 µM in each case.
